Data taken from patent US10526327B2, “Histone demethylase inhibitors” (CELGENE QUANTICEL RESEARCH, INC., priority 2013, dated 2020).

Experiments:
Jarid1B = target: T1, Jarid1B (Homo sapiens, UniProt Q9UGL1); test: Jarid1B in vitro enzyme inhibition assay (TR-FRET); type: biochemical
T1 construct: purchased BPS Bioscience or custom made by MolecularThroughput 50121
T1 sequence (Q9UGL1 2-751): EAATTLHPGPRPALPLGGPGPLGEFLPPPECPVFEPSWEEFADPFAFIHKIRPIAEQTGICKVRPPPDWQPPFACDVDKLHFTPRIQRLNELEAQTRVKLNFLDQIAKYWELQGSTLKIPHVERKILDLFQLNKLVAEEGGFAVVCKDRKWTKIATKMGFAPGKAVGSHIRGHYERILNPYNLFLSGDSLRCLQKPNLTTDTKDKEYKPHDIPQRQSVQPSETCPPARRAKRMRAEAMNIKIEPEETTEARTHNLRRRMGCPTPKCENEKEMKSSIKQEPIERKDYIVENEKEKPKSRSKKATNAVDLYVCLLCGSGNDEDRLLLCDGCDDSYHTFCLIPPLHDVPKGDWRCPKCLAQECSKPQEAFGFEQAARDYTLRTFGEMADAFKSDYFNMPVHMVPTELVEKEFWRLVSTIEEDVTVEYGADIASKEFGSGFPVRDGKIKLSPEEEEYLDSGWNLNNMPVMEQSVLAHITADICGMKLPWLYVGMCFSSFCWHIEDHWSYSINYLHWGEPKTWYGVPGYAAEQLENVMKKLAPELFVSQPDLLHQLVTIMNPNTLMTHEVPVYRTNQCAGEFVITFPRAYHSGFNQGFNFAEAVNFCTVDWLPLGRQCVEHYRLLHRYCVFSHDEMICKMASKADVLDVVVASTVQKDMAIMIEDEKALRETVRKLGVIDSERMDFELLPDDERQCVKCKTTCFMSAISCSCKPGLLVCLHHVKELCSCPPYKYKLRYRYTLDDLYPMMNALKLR
In short: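 Jarid1B (AA 2-751, baculovirus-expressed) at 0.8 nM with 300 nM biotin-H3K4me3 peptide and 2 μM α-ketoglutarate in HEPES pH 7.3 with ascorbate and Fe(II), 30 min at room temperature. Stopped with EDTA; H3K4me1-2 product detected by TR-FRET (665/615 ratio) and IC50 fitted from 11-point dilutions.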

JMJD2C = target: T2, JMJD2C (Homo sapiens, UniProt Q9H3R0); test: JMJD2C in vitro enzyme inhibition assay (TR-FRET); type: biochemical
T2 construct: purchased BPS Bioscience 50105
T2 sequence (Q9H3R0 2-372): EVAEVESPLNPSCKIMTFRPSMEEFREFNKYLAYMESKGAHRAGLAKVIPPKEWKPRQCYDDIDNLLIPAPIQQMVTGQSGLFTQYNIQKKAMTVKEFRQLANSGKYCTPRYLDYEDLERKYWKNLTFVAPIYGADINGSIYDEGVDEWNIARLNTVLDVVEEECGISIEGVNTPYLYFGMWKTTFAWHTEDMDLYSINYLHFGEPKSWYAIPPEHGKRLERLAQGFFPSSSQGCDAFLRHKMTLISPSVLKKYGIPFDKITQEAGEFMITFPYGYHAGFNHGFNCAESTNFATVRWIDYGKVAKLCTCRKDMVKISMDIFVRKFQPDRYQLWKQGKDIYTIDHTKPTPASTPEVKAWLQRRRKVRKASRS
In short: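 Baculovirus-expressed human JMJD2C (AA 2-372) at 0.3 nM demethylated 300 nM biotin-H3K9me3 peptide with 2 μM alpha-ketoglutarate in HEPES pH 7.3 containing ascorbate and Fe(II), 30 min at room temperature. EDTA-stopped product was read by TR-FRET with Eu-anti-H3K9me2 and streptavidin-APC; 665/615 ratios from 11-point dilutions gave IC50.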

SMILES | IC50 (Jarid1B) | IC50 (JMJD2C)
CC(C)Oc1nc(O)c2ccncc2n1 [Example 1, 2-propan-2-yloxy-3H-pyrido[3,4-d]pyrimidin-4-one] | 100 to 1000 nM | 100 to 1000 nM
CCOc1nc(O)c2ccncc2n1 [Example 2, 2-ethoxypyrido[3,4-d]pyrimidin-4-ol] | ≤ 100 nM | 100 to 1000 nM
Oc1nc(OCCOCC(F)(F)F)nc2cnccc12 [Example 23, 2-[2-(2,2,2-trifluoroethoxy)ethoxy]pyrido[3,4-d]pyrimidin-4-ol] | 100 to 1000 nM | 100 to 1000 nM
CC(C)(O)CCOc1nc(O)c2ccncc2n1 [Example 24, 2-(3-hydroxy-3-methylbutoxy)pyrido[3,4-d]pyrimidin-4-ol] | ≤ 100 nM | 100 to 1000 nM
CC(CO)COc1nc(O)c2ccncc2n1 (stereo not drawn) [Example 25, 2-(3-hydroxy-2-methylpropoxy)pyrido[3,4-d]pyrimidin-4-ol] | 100 to 1000 nM | 100 to 1000 nM
Oc1nc(OCC2CCCO2)nc2cnccc12 (stereo not drawn) [Example 26, 2-(oxolan-2-ylmethoxy)pyrido[3,4-d]pyrimidin-4-ol] | 1000 to 10000 nM | 100 to 1000 nM
Oc1nc(OCC2CCOC2)nc2cnccc12 (stereo not drawn) [Example 27, 2-(oxolan-3-ylmethoxy)pyrido[3,4-d]pyrimidin-4-ol] | 100 to 1000 nM | 100 to 1000 nM
CC(=O)N(C)CCOc1nc(O)c2ccncc2n1 [Example 28, N-[2-(4-hydroxypyrido[3,4-d]pyrimidin-2-yl)oxyethyl]-N-methylacetamide] | 100 to 1000 nM | 100 to 1000 nM
CC(C)OCCOc1nc(O)c2ccncc2n1 [Example 29, 2-(2-propan-2-yloxyethoxy)pyrido[3,4-d]pyrimidin-4-ol] | 100 to 1000 nM | 100 to 1000 nM
Oc1nc(OCCOCc2ccccc2)nc2cnccc12 [Example 30, 2-(2-phenylmethoxyethoxy)pyrido[3,4-d]pyrimidin-4-ol] | 100 to 1000 nM | 100 to 1000 nM
O=C(NCCOc1nc(O)c2ccncc2n1)c1ccccc1 [Example 31, N-[2-(4-hydroxypyrido[3,4-d]pyrimidin-2-yl)oxyethyl]benzamide] | ≤ 100 nM | 100 to 1000 nM
N#Cc1cccc(COc2nc(O)c3ccncc3n2)c1 [Example 32, 3-[(4-hydroxypyrido[3,4-d]pyrimidin-2-yl)oxymethyl]benzonitrile] | 100 to 1000 nM | 100 to 1000 nM
Cn1ccc(COc2nc(O)c3ccncc3n2)n1 [Example 33, 2-[(1-methylpyrazol-3-yl)methoxy]pyrido[3,4-d]pyrimidin-4-ol] | 1000 to 10000 nM | ≤ 100 nM
Oc1nc(Oc2ccccc2)nc2cnccc12 [Example 34, 2-phenoxypyrido[3,4-d]pyrimidin-4-ol] | ≤ 100 nM | 100 to 1000 nM
Oc1nc(OCc2ccccc2C(F)(F)F)nc2cnccc12 [Example 177, 2-{[2-(trifluoromethyl)phenyl]methoxy}pyrido[3,4-d]pyrimidin-4-ol] | 1000 to 10000 nM | ≤ 100 nM
Oc1nc(OCc2ccccc2F)nc2cnccc12 [Example 178, 2-[(2-fluorophenyl)methoxy]pyrido[3,4-d]pyrimidin-4-ol] | 1000 to 10000 nM | ≤ 100 nM

More lines, now with the values ahead:

IC50 (Jarid1B) | IC50 (JMJD2C) | SMILES
1000 to 10000 nM | ≤ 100 nM | Oc1nc(OCc2cccc(F)c2)nc2cnccc12 [Example 179, 2-[(3-fluorophenyl)methoxy]pyrido[3,4-d]pyrimidin-4-ol]
1000 to 10000 nM | ≤ 100 nM | Oc1nc(OCc2ccc(F)cc2)nc2cnccc12 [Example 180, 2-[(4-fluorophenyl)methoxy]pyrido[3,4-d]pyrimidin-4-ol]
1000 to 10000 nM | ≤ 100 nM | Oc1nc(OCc2cccc(F)c2F)nc2cnccc12 [Example 181, 2-[(2,3-difluorophenyl)methoxy]pyrido[3,4-d]pyrimidin-4-ol]
1000 to 10000 nM | ≤ 100 nM | Oc1nc(OCc2cc(F)ccc2F)nc2cnccc12 [Example 182, 2-[(2,5-difluorophenyl)methoxy]pyrido[3,4-d]pyrimidin-4-ol]
1000 to 10000 nM | 100 to 1000 nM | Oc1nc(OCc2c(F)cccc2F)nc2cnccc12 [Example 183, 2-[(2,6-difluorophenyl)methoxy]pyrido[3,4-d]pyrimidin-4-ol]
1000 to 10000 nM | 100 to 1000 nM | Oc1nc(OCc2cccc3ccccc23)nc2cnccc12 [Example 184, 2-(naphthalen-1-ylmethoxy)pyrido[3,4-d]pyrimidin-4-ol]
1000 to 10000 nM | 100 to 1000 nM | Oc1nc(OCc2ccccc2-c2ccccc2)nc2cnccc12 [Example 185, 2-[(2-phenylphenyl)methoxy]pyrido[3,4-d]pyrimidin-4-ol]
1000 to 10000 nM | 100 to 1000 nM | Oc1nc(OCc2cccc(-c3ccccc3)c2)nc2cnccc12 [Example 186, 2-[(3-phenylphenyl)methoxy]pyrido[3,4-d]pyrimidin-4-ol]
1000 to 10000 nM | 1000 to 10000 nM | Oc1nc(OCc2ccc3ccccc3c2)nc2cnccc12 [Example 187, 2-(naphthalen-2-ylmethoxy)pyrido[3,4-d]pyrimidin-4-ol]
100 to 1000 nM | ≤ 100 nM | Oc1nc(OCC2CCCc3ccccc32)nc2cnccc12 (stereo not drawn) [Example 188, 2-(1,2,3,4-tetrahydronaphthalen-1-ylmethoxy)pyrido[3,4-d]pyrimidin-4-ol]
100 to 1000 nM | ≤ 100 nM | Oc1nc(OC2Cc3ccccc3C2)nc2cnccc12 [Example 189, 2-(2,3-dihydro-1H-inden-2-yloxy)pyrido[3,4-d]pyrimidin-4-ol]
100 to 1000 nM | ≤ 100 nM | Oc1nc(OCC2CCc3ccccc32)nc2cnccc12 (stereo not drawn) [Example 190, 2-(2,3-dihydro-1H-inden-1-ylmethoxy)pyrido[3,4-d]pyrimidin-4-ol]
100 to 1000 nM | ≤ 100 nM | Oc1nc(OCC2CCc3ccccc3C2)nc2cnccc12 (stereo not drawn) [Example 191, 2-(1,2,3,4-tetrahydronaphthalen-2-ylmethoxy)pyrido[3,4-d]pyrimidin-4-ol]
1000 to 10000 nM | 1000 to 10000 nM | Oc1nc(OC2CCc3ccccc32)nc2cnccc12 (stereo not drawn) [Example 192, 2-(2,3-dihydro-1H-inden-1-yloxy)pyrido[3,4-d]pyrimidin-4-ol]
100 to 1000 nM | ≤ 100 nM | Oc1nc(OCc2coc3ccccc23)nc2cnccc12 [Example 193, 2-(1-benzofuran-3-ylmethoxy)pyrido[3,4-d]pyrimidin-4-ol]
1000 to 10000 nM | 1000 to 10000 nM | Oc1nc(OCC2COc3ccccc32)nc2cnccc12 (stereo not drawn) [Example 194, 2-(2,3-dihydro-1-benzofuran-3-ylmethoxy)pyrido[3,4-d]pyrimidin-4-ol]
100 to 1000 nM | ≤ 100 nM | Oc1nc(OCC2CCOc3ccccc32)nc2cnccc12 (stereo not drawn) [Example 195, 2-(3,4-dihydro-2H-1-benzopyran-4-ylmethoxy)pyrido[3,4-d]pyrimidin-4-ol]
1000 to 10000 nM | 1000 to 10000 nM | Oc1nc(OC2CCCc3ccccc32)nc2cnccc12 (stereo not drawn) [Example 196, 2-(1,2,3,4-tetrahydronaphthalen-1-yloxy)pyrido[3,4-d]pyrimidin-4-ol]
100 to 1000 nM | ≤ 100 nM | Oc1nc(OC2CCOc3ccccc32)nc2cnccc12 (stereo not drawn) [Example 197, 2-(3,4-dihydro-2H-1-benzopyran-4-yloxy)pyrido[3,4-d]pyrimidin-4-ol]
100 to 1000 nM | 100 to 1000 nM | Cn1cnc(-c2nccc3c(=O)[nH]cnc23)c1 [Example 198, 8-(1-methylimidazol-4-yl)-3H-pyrido[3,4-d]pyrimidin-4-one]
